Test results taken from patent EP4745135A1 (Gluetacs Therapeutics (Shanghai) Co., Ltd., priority 2023, dated 2025).

Experiments:
CK1α = biological target: T1, CK1α (Homo sapiens, UniProt P48729+Q96SW2); test: Western blot, degradation of substrate protein in hPBMCs; assay type: cell-based
T1 construct: effects of the compounds of the present disclosure on the expression of target proteins in cells; endogenous in cells; host or cells: human PBMCs (Milecell Biotechnologies)

WEE1 = biological target: T2, WEE1 (Homo sapiens, UniProt P30291+Q96SW2); test: as above; assay type: cell-based
T2 construct: effects of the compounds of the present disclosure on the expression of target proteins in cells; endogenous in cells; host or cells: human PBMCs (Milecell Biotechnologies)
T2 sequence (P30291 whole entry): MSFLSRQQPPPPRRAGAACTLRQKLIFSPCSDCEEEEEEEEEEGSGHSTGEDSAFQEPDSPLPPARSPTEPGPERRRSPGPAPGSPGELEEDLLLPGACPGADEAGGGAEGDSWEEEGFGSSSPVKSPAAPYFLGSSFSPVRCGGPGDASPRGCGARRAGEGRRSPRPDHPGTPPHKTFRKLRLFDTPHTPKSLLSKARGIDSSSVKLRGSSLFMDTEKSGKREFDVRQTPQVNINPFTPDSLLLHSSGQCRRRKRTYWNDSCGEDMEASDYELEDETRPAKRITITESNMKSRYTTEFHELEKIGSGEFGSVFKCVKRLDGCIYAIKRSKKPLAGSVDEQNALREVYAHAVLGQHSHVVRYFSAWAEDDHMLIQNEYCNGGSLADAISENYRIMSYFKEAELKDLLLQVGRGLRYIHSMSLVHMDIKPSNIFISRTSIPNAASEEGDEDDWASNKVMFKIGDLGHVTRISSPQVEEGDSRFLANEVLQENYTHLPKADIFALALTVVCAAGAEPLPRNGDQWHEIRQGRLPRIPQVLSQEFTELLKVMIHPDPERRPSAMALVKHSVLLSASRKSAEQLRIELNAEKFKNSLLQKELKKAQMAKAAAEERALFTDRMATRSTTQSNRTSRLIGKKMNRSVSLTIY
T2 sequence (Q96SW2 whole entry): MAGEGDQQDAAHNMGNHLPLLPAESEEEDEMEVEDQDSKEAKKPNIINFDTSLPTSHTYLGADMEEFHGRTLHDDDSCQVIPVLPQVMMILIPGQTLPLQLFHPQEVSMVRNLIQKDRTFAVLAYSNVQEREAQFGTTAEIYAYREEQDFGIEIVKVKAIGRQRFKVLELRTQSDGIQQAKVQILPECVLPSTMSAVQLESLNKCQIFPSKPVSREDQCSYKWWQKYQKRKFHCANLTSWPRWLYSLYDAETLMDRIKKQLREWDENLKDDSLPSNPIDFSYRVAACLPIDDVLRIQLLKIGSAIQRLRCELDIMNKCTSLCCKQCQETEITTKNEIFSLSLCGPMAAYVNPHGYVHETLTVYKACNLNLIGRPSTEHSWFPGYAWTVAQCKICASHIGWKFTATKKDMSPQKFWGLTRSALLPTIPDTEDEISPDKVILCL
T2 sequence (Q16531 whole entry partner): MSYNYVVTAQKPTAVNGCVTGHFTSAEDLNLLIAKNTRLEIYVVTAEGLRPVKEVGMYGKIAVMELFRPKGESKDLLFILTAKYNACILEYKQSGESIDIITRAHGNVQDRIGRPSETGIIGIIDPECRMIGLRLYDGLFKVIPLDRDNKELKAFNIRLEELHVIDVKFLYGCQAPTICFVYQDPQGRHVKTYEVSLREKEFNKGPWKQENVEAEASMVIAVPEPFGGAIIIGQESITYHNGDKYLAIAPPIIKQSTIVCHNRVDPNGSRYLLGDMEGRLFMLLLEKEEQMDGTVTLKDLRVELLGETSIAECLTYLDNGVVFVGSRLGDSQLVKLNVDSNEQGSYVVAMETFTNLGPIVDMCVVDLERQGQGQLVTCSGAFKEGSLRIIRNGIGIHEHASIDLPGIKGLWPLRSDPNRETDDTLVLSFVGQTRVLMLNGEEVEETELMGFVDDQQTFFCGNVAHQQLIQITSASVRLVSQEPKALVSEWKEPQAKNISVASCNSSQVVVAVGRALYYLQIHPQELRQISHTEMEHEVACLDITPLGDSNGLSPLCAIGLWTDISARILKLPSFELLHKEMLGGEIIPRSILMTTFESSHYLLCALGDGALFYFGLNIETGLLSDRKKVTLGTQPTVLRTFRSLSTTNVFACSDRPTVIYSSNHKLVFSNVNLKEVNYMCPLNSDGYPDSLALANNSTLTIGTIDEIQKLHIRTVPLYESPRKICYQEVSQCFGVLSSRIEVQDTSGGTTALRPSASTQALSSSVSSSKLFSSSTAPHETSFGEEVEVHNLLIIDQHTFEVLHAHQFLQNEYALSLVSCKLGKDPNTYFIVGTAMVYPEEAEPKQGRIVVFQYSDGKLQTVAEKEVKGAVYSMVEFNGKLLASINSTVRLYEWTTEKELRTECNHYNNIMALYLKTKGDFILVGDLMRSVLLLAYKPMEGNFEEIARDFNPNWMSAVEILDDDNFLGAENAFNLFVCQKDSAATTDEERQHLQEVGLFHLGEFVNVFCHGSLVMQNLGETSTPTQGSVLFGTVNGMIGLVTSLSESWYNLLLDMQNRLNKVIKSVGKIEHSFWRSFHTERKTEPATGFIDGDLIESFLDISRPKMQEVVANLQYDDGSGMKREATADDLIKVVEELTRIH

IKZF1 = biological target: T3, IKZF1 (Homo sapiens, UniProt Q13422+Q96SW2); test: as above; assay type: cell-based
T3 construct: effects of the compounds of the present disclosure on the expression of target proteins in cells; endogenous in cells; host or cells: human PBMCs (Milecell Biotechnologies)
T3 sequence (Q13422 whole entry): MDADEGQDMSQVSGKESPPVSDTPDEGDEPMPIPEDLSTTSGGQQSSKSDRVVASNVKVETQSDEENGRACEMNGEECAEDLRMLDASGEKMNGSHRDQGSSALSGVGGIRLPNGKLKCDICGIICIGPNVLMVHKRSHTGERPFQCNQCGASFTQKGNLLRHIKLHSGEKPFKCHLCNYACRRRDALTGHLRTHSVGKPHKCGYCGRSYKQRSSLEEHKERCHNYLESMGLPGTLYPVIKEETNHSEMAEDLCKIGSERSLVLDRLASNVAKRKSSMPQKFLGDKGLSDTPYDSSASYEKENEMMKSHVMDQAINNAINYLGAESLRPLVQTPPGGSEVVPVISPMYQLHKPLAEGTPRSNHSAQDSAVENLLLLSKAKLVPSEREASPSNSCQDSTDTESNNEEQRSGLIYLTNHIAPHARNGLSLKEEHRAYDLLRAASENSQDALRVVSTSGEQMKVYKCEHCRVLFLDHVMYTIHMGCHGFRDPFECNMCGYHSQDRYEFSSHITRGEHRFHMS
T3 sequence (Q96SW2 whole entry): as the sequence (Q96SW2 whole entry) above
T3 sequence (Q16531 whole entry partner): as the sequence (Q16531 whole entry partner) above

IKZF3 = biological target: T4, IKZF3 (Homo sapiens, UniProt Q96SW2+Q9UKT9); test: as above; assay type: cell-based
T4 construct: effects of the compounds of the present disclosure on the expression of target proteins in cells; endogenous in cells; host or cells: human PBMCs (Milecell Biotechnologies)
T4 sequence (Q9UKT9 whole entry): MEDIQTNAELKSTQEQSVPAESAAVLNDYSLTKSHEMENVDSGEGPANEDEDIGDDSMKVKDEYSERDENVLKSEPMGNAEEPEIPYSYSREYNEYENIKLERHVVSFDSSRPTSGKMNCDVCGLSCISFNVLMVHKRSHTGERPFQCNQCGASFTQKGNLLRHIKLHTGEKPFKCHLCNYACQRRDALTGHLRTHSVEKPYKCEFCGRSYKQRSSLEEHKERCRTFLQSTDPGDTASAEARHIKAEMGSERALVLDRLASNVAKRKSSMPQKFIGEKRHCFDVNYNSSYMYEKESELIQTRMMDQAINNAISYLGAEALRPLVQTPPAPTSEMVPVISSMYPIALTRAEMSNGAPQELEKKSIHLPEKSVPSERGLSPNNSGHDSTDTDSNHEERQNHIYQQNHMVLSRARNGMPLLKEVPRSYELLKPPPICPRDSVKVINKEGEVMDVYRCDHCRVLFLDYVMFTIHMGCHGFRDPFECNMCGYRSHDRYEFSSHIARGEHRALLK
T4 sequence (Q96SW2 whole entry): as the sequence (Q96SW2 whole entry) above
T4 sequence (Q16531 whole entry partner): as the sequence (Q16531 whole entry partner) above

IKZF2 = biological target: T5, IKZF2 (Homo sapiens, UniProt Q96SW2+Q9UKS7); test: as above; assay type: cell-based
T5 construct: effects of the compounds of the present disclosure on the expression of target proteins in cells; endogenous in cells; host or cells: human PBMCs (Milecell Biotechnologies)
T5 sequence (Q9UKS7 whole entry): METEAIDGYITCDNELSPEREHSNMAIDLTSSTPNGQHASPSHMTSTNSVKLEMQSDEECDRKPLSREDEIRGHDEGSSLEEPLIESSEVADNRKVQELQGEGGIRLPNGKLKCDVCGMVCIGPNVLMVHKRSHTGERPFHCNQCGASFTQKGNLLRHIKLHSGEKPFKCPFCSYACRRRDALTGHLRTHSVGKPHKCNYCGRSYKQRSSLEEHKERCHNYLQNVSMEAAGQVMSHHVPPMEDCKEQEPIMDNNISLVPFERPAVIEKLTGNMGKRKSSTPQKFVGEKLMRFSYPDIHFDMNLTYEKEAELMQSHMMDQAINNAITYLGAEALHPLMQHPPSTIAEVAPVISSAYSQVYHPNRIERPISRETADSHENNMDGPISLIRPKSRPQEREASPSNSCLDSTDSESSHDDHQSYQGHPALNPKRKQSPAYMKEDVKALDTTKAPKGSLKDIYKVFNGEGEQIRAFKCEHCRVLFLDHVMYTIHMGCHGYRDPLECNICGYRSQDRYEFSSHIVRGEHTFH
T5 sequence (Q96SW2 whole entry): as the sequence (Q96SW2 whole entry) above
T5 sequence (Q16531 whole entry partner): as the sequence (Q16531 whole entry partner) above

GSPT1 = test: as above; assay type: cell-based, Human
[1] = biological target: T6, human Cereblon WT GST-tagged protein (Homo sapiens, UniProt Q96SW2); test: CRBN-binding affinity, HTRF (CEREBLON BINDING kit); conditions: for inhibition at 0.5 µM: read-out: Inhibition Rate at 0.5 µM (%); for inhibition at 2 µM: read-out: Inhibition Rate at 2 µM (%)
T6 construct: purchased CISBIO 64BDCRBNPEH
T6 sequence (Q96SW2 whole entry): as the sequence (Q96SW2 whole entry) above

[2] = Western blot, 24 hours of compound treatment, compounds tested at 50 nM and 500 nM (concentration for the table not stated)
[3] = 24 hours treatment, compounds at 50 nM and 500 nM (concentration behind the class not stated)

T1 sequence (P48729 whole entry): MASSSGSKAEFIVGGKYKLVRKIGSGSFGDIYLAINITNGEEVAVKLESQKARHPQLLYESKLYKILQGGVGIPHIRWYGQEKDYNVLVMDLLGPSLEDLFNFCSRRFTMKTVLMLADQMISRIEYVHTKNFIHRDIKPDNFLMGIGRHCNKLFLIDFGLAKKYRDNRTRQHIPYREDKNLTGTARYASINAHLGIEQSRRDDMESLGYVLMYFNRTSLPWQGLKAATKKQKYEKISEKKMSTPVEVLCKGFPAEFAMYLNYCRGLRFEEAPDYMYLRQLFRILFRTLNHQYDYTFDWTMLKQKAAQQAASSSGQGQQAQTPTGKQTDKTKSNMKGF
T1 sequence (Q96SW2 whole entry): as the sequence (Q96SW2 whole entry) above
T1 sequence (Q16531 whole entry partner): as the sequence (Q16531 whole entry partner) above

Row | Structure (SMILES) | CK1α substrate protein remaining % (CK1α; [2]) | Wee1 substrate protein remaining % (WEE1; [2]) | IKZF 1 substrate protein remaining % (IKZF1; [2]) | IKZF3 substrate protein remaining % (IKZF3; [2]) | IKZF2 substrate protein remaining % (IKZF2; [2]) | GSPT1 substrate protein remaining % (GSPT1; [2]) | inhibition at 0.5 µM [1] | inhibition at 2 µM [1] | CK1α substrate protein remaining % (CK1α; [3]) | Wee1 substrate protein remaining % (WEE1; [3]) | IKZF 1 substrate protein remaining % (IKZF1; [3]) | IKZF3 substrate protein remaining % (IKZF3; [3]) | IKZF2 substrate protein remaining % (IKZF2; [3]) | GSPT1 substrate protein remaining % (GSPT1; [3]) | IC50 ([1]; CRBN binding, HTRF, 3 hours at room temperature, read-out: HTRF IC50)
1 | Cn1cc(C2=CCN(Cc3cccc4c3CN(C3CCC(=O)NC3=O)C4=S)CC2)c2ccc(F)cc21 (stereo not shown) [GT-08493, 3-(4-((4-(6-fluoro-1-methyl-1H-indol-3-yl)-3,6-dihydropyridin-1(2H)-yl)methyl)-1-thioxoisoindolin-2-yl)piperidine-2,6-dione] | B (80%< substrate protein remaining %≤ 100%) | B (80%< substrate protein remaining %≤ 100%) | B (80%< substrate protein remaining %≤ 100%) | B (80%< substrate protein remaining %≤ 100%) | A (0% ≤ substrate protein remaining % ≤ 80%) | A (0% ≤ substrate protein remaining % ≤ 80%) | 40 to 53% | 80 to 100% |  |  |  |  |  |  | 
2 | O=C1CCC(N2Cc3c(CN4CC=C(c5ccco5)CC4)cccc3C2=S)C(=O)N1 (stereo not shown) [GT-08311, 3-(4-((4-(furan-2-yl)-3,6-dihydropyridin-1 (2H)-yl)methyl)-1-thioxoisoindolin-2-yl)piperidine-2,6-dione] |  |  |  |  |  |  | 60 to 80% | 80 to 100% | B (80%< substrate protein remaining %≤ 100%) | A (0% ≤ substrate protein remaining % ≤ 80%) | B (80%< substrate protein remaining %≤ 100%) | B (80%< substrate protein remaining %≤ 100%) | B (80%< substrate protein remaining %≤ 100%) | B (80%< substrate protein remaining %≤ 100%) | 
3 | O=C1CCC(N2Cc3c(CN4CCN(c5nc(Cl)nc6c5SCC6)CC4)cccc3C2=S)C(=O)N1 (stereo not shown) [GT-08966, 3-(4-((4-(2-chloro-6,7-dihydrothieno[3,2-d]pyrimidin-4-yl)piperazin-1-yl)methyl)-1-thioxoisoindolin-2-yl)piperidine-2,6-dione] |  |  |  |  |  |  | 80 to 100% | 80 to 100% | B (80%< substrate protein remaining %≤ 100%) | B (80%< substrate protein remaining %≤ 100%) | B (80%< substrate protein remaining %≤ 100%) | B (80%< substrate protein remaining %≤ 100%) | B (80%< substrate protein remaining %≤ 100%) | A (0% ≤ substrate protein remaining % ≤ 80%) | 
4 | O=C1CCC(N2Cc3cc(CN4CCN(c5ccc(C(F)(F)F)cn5)CC4)ccc3C2=S)C(=O)N1 (stereo not shown) [GT-09225, 3-(1-thioxo-5-((4-(5-(trifluoromethyl)pyridin-2-yl)piperazin-1-yl)methyl)isoindolin-2-yl)piperidine-2,6-dione] | A (0% ≤ substrate protein remaining % ≤ 80%) | B (80%< substrate protein remaining %≤ 100%) | B (80%< substrate protein remaining %≤ 100%) | A (0% ≤ substrate protein remaining % ≤ 80%) | B (80%< substrate protein remaining %≤ 100%) | A (0% ≤ substrate protein remaining % ≤ 80%) | 60 to 80% | 80 to 100% |  |  |  |  |  |  | 
5 | CC1(C)CCC(CN2CC3CCC(C2)N3Cc2ccc3c(c2)CN(C2CCC(=O)NC2=O)C3=S)=C(c2ccc(Cl)cc2)C1 (stereo not shown) [GT-08163, 3-(5-((3-((4'-chloro-5,5-dimethyl-3,4,5,6-tetrahydro-[1,1'-biphenyl]-2-yl)methyl)-3,8-diazabicyclo[3.2.1]octan-8-yl)methyl)-1-thioxoisoindolin-2-yl)piperidine-2,6-dione] |  |  |  |  |  |  | 53 to 60% | 60 to 80% | B (80%< substrate protein remaining %≤ 100%) | A (0% ≤ substrate protein remaining % ≤ 80%) | A (0% ≤ substrate protein remaining % ≤ 80%) | B (80%< substrate protein remaining %≤ 100%) | B (80%< substrate protein remaining %≤ 100%) | A (0% ≤ substrate protein remaining % ≤ 80%) | 
6 | Cc1ccsc1C1=CCN(Cc2ccc3c(c2)C(=S)N(C2CCC(=O)NC2=O)C3)CC1 (stereo not shown) [GT-05032, 3-(6-((4-(3-methylthiophen-2-yl)-3,6-dihydropyridin-1(2H)-yl)methyl)-1-thioxoisoindolin-2-yl)piperidine-2,6-dione] |  |  |  |  |  |  |  |  | B (80%< substrate protein remaining %≤ 100%) | B (80%< substrate protein remaining %≤ 100%) | B (80%< substrate protein remaining %≤ 100%) | A (0% ≤ substrate protein remaining % ≤ 80%) | B (80%< substrate protein remaining %≤ 100%) | A (0% ≤ substrate protein remaining % ≤ 80%) | 100 to 500 nM
7 | O=C1CCC(N2Cc3c(CN4CCN(c5ccc(F)cc5F)CC4)cccc3C2=S)C(=O)N1 (stereo not shown) [GT-08503, 3-(4-((4-(2,4-difluorophenyl)piperazin-1-yl)methyl)-1-thioxoisoindolin-2-yl)piperidine-2,6-dione] | B (80%< substrate protein remaining %≤ 100%) | A (0% ≤ substrate protein remaining % ≤ 80%) | B (80%< substrate protein remaining %≤ 100%) | B (80%< substrate protein remaining %≤ 100%) | B (80%< substrate protein remaining %≤ 100%) | A (0% ≤ substrate protein remaining % ≤ 80%) | 40 to 53% | 60 to 80% |  |  |  |  |  |  | 
8 | O=C1CCC(N2Cc3c(CN4CCN(c5nc(N6CCOCC6)c6sccc6n5)CC4)cccc3C2=S)C(=O)N1 (stereo not shown) [GT-09033, 3-(4-((4-(4-morpholinothieno[3,2-d]pyrimidin-2-yl)piperazin-1-yl)methyl)-1-thioxoisoindolin-2-yl)piperidine-2,6-dione] |  |  |  |  |  |  | 60 to 80% | 80 to 100% | B (80%< substrate protein remaining %≤ 100%) | A (0% ≤ substrate protein remaining % ≤ 80%) | B (80%< substrate protein remaining %≤ 100%) | B (80%< substrate protein remaining %≤ 100%) | B (80%< substrate protein remaining %≤ 100%) | B (80%< substrate protein remaining %≤ 100%) | 
9 | CC1(C)CCC(CN2CC3CCC2CN3Cc2cccc3c2CN(C2CCC(=O)NC2=O)C3=S)=C(c2ccc(Cl)cc2)C1 (stereo not shown) [GT-08302, 3-(4-((5-((4'-chloro-5,5-dimethyl-3,4,5,6-tetrahydro-[1,1'-biphenyl]-2-yl)methyl)-2,5-diazabicyclo[2.2.2]octan-2-yl)methyl)-1-thioxoisoindolin-2-yl)piperidine-2,6-dione] | B (80%< substrate protein remaining %≤ 100%) | A (0% ≤ substrate protein remaining % ≤ 80%) | B (80%< substrate protein remaining %≤ 100%) | B (80%< substrate protein remaining %≤ 100%) | B (80%< substrate protein remaining %≤ 100%) | B (80%< substrate protein remaining %≤ 100%) | 30 to 40% | 80 to 100% |  |  |  |  |  |  | 
10 | O=C1CCC(N2Cc3c(CN4CCN(c5ccccc5Cl)CC4)cccc3C2=S)C(=O)N1 (stereo not shown) [GT-08265, 3-(4-((4-(2-chlorophenyl)piperazin-1-yl)methyl)-1-thioxoisoindolin-2-yl)piperidine-2,6-dione] | B (80%< substrate protein remaining %≤ 100%) | A (0% ≤ substrate protein remaining % ≤ 80%) | B (80%< substrate protein remaining %≤ 100%) | B (80%< substrate protein remaining %≤ 100%) | B (80%< substrate protein remaining %≤ 100%) | A (0% ≤ substrate protein remaining % ≤ 80%) | 40 to 53% | 53 to 60% |  |  |  |  |  |  | 
